# Laboratory results taken from publication PMC3745399, “An NO Donor Approach to Neuroprotective and Procognitive Estrogen Therapy Overcomes Loss of NO Synthase Function and Potentially Thrombotic Risk” (PLoS ONE, 2013).
# Columns and labels:
# [1] = tested on: hippocampal slices from 16-month old male 3×Tg mice; assay: LTP in CA1 of hippocampal slices after theta burst stimulation; set-up: species or system mouse; conditions: 3×Tg slices; for enhancement of subsequent theta bursts during LTP induction: 100 nM; for end fEPSP: 100 nM added 30 min prior to TBS, untreated 3×Tg 97.0±6.4%, WT 134.7±10.3%
# Experimental: LTP in the CA1 field of the hippocampus is a well-studied cellular model for learning and memory. […] At 16 months, an advanced age at which Alzheimer's-like neuropathology is well developed in these animals, studies on LTP have not previously been reported. Nevertheless, we observed a robust, reproducible deficit in LTP in these aged transgenic mice, with field excitatory post-synaptic potentials (fEPSP) showing an end fEPSP of 97.0±6.4% of baseline at 45 min post-TBS, compared to 134.7±10.3% observed in the wild type (WT) transgenic background controls (Fig. 3A,B).
# Figure 3 Reversal of LTP deficit in aged 3×Tg mice by SERMs is GPR30 dependent. LTP was measured after TBS in the CA1 region of hippocampal sections from 16 month male 3×Tg mice or WT controls. Test compounds (SERMs 100 nM; G15 100 nM) were added 30 min prior to TBS. […] (C) Secondary analysis of theta bursts indicate action both during induction and stabilization of LTP, through a GPR30 dependent mechanism.
# All experiments used 16-month old male 3×Tg transgenic or age-matched WT background controls. For electrophysiology, mice were rapidly decapitated, and brains were removed into an ice-cold aCSF solution (in mM: NaCl 124, KCl 3.0, KH2PO4 1.25, NaHCO3 25.7, D-glucose 10, L-ascorbate 2.0, MgSO4 2.5, and CaCl2 3.3) and sectioned on a tissue chopper into 400 µm sections. Slices were transported to a 37°C solution of aCSF, continuously bubbled with 95% O2/5% CO2, and allowed to recover at least 60 min before experimentation. After placement of a stimulation electrode in the Schaffer commissural fibers and recording electrodes with 2 M NaCl solution into the stratum radiatum of the CA1 area, stimulus intensity was set to evoke submaximal fEPSP and continuously monitored at 20 s intervals for at least 15 min to establish a stable baseline. SERMs (100 nM) and G15 (100 nM) were prepared fresh in perfusate and started at least 30 min before LTP induction to reach a new baseline after enhancement of basal synaptic transmission was observed. […] Resulting fEPSP was monitored at 20 s intervals for ∼60 min post TBS.
# [2] = tested on: primary cortical neurons exposed to OGD; assay: Neuroprotection in oxygen glucose deprivation (OGD), MTT; assay type: cell-based, rat; conditions: for neuroprotection with G15: 100 nM SERM + G15 100 nM (GPR30 antagonist); for neuroprotection with L-NAME: 100 nM SERM + L-NAME 100 µM (NOS antagonist), whether it attenuated neuroprotective activity; for neuroprotection with LY294002: 100 nM SERM + LY294002 10 µM (PI3K inhibitor); for neuroprotection with pertussis toxin: 100 nM SERM + pertussis toxin 100 ng/mL; for neuroprotection (cell survival by MTT): 100 nM, 2 h OGD, 24 h, no blocker, normalized to E2 10 nM (100%) and vehicle (0%)
# Experimental: Primary neuronal cultures were subjected to 2 h OGD with compounds added at the start of OGD and inhibitors added 45 min prior to OGD. Cell survival was measured at 24 h.
# Primary cultures of dissociated cortical neurons were prepared as follows; briefly, cortices were dissected from E16-18 Sprague-Dawley rats (Charles River). After removal of meninges, cortices were manually dissociated and plated at a density of 10^6 cells/mL into 96-well plates. Twenty-four hours after plating, cultures were grown in Neurobasal A media supplemented with B27, glutamine and pen/strep, with media changes every 3–4 days. In accordance with published protocols, measured levels of glia in culture after DIV2 are <0.5%. Experiments were performed at DIV 11–12.
# The cell media was changed to phenol red-free growing media at least 3 h before OGD. Receptor blockers were added 45 min prior to the start of OGD, and SERMs were added at the start of OGD, with concentrations maintained through media changes. For OGD, the cells were transferred to a hypoxia chamber controlled at 5% CO2 and <1% O2, and growth media was replaced with a physiological salt solution (in mM: NaCl 116, CaCl2 1.8, MgSO4 0.8, KCl 5.4, NaHCO3 14.7, NaHPO4 1, HEPES 10, pH = 7.4). After 2 h OGD, cells were removed from the chamber and growth media was replaced. After 24 h, cell viability was measured by MTT assay using a Dynex MRX ll micro-plate spectrophotometer.
# [3] = NO levels (NOx) in hippocampus and plasma by chemiluminescence; assay type: in vivo, mouse; conditions: 2 mg/kg i.p., 1 h; for elevation of NOx in hippocampus / elevation of NOx in plasma: WT mice
# Experimental: Brain and plasma NO levels were assessed by measuring metabolic oxidation products, NO2 ^−and NO3 ^− (NOx), using chemiluminescence detection.
# Figure 5 Effects of SERM and NO-SERMon NO levels in plasma and brain of WT and eNOS (−/−) mice. Levels of NO were assessed by measuring breakdown products 1 h after i.p. injection of SERMs (2 mg/kg) using chemiluminescence detection.
# All experiments were performed on 6–8 month male C57B1/6 mice (Charles River Laboratory) or eNOS(−/−) animals. Animals were injected (i.p.) at various time points before sacrifice at the doses specified. After euthanasia via CO2, plasma was collected, and cortices and hippocampi were collected after PBS perfusion and stored at −80°C. Tissue samples were weighed and extracted with methanol. Plasma samples were extracted with cold acetonitrile. Quantitative analysis of drug concentrations in plasma and brain used internal standards spiked into plasma and brain homogenates before liquid extraction with acetonitrile or methanol, and separation and measurement was performed with LC-MS/MS tandem mass spectrometry. The supernatant (deproteinized) was analyzed by chemiluminescence with SIEVERS 280i nitric oxide analyzer.
# [4] = tested on: Ishikawa endometrial cancer cell line; assay: ER-mediated transcriptional activity (antiestrogen) in Ishikawa cells; assay type: cell-based; conditions: read-out: antiestrogen potency IC50, ER-mediated transcriptional activity
Compound,enhancement of subsequent theta bursts during LTP induction [1],end fEPSP [1],neuroprotection with G15 [2],"neuroprotection with ICI 182780 ([2]; 100 nM SERM + ICI 182780 100 nM, added 45 min prior to OGD)",neuroprotection with L-NAME [2],neuroprotection with LY294002 [2],neuroprotection with pertussis toxin [2],neuroprotection (cell survival by MTT) [2],elevation of NOx in hippocampus [3],elevation of NOx in plasma [3],"NOx in hippocampus, eNOS(−/−) ([3]; eNOS(−/−) mice)","NOx in plasma, eNOS(−/−) ([3]; eNOS(−/−) mice)",IC50 [4],end fEPSP with G15 ([1]; DMA 100 nM + G15 100 nM),"effect on LTP with ODQ (sGC inhibitor) ([1]; ODQ 10 nM, variable interburst interval, preliminary)"
"O=[N+]([O-])OCCCC1CCN(CCOc2ccc(Oc3c(-c4ccc(O)cc4)sc4cc(O)ccc34)cc2)CC1 [NO-DMA, 3-(1-(2-(4-(6-hydroxy-2-(4-ydroxyphenyl)benzo[b]thiophen-3-yloxy)phenoxy)ethyl)piperidin-4-yl)propyl nitrate]",augmented,144.2±5.2 % of baseline,blocked the neuroprotective activity,did not block this effect,did not,attenuated neuroprotective activity,blocked the neuroprotective activity,robust neuroprotection identical to DMA,greater than twofold elevation,greater than twofold elevation,"increase NOx significantly, relative to DMA","increase NOx significantly, relative to DMA",3.9 ± 1.3 nM,–,–
"Oc1ccc(-c2sc3cc(O)ccc3c2Oc2ccc(OCCN3CCCCC3)cc2)cc1 [DMA, desmethylarzoxifene]",augmented,144.9±8.7 % of baseline,blocked the neuroprotective activity,–,did not,attenuated neuroprotective activity,blocked the neuroprotective activity,robust neuroprotection,greater than twofold elevation,greater than twofold elevation,–,–,0.1 ± 0.1 nM,96.8±7.1%,ODQ blocks effect of DMA on LTP
